This assay has as its target mushroom tyrosinase (Agaricus bisporus, UniProt C7FF04). Briefly: Tyrosinase inhibitory assay. The class given is biochemical.
Where [1] appears, read: percent inhibition at 500 μM, versus carvacrol (1).

Sequence of mushroom tyrosinase (C7FF04 1-392): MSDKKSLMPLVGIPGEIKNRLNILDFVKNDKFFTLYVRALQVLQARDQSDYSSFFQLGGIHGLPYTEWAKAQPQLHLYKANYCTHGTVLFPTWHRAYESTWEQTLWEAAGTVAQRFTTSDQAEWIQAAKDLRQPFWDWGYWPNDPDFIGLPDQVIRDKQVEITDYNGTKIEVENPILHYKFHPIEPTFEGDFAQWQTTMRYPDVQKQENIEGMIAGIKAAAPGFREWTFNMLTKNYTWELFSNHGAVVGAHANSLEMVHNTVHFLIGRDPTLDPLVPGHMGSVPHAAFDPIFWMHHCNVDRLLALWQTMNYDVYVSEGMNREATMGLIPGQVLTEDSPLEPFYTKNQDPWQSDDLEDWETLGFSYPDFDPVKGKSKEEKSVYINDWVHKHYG

Turning to `CCCCOC(=O)CCC(=O)c1cc(C(C)C)c(OCC)cc1C` [Compound 18], the inhibition (commonly how much of the control response was suppressed) at 500 µM is 100 ± 3.9%. As to `CCOc1cc(C(C)C)c(C(=O)CCC(=O)O)cc1C` [Compound 5], under setting [1], the “fold decrease in activity relative to carvacrol” value worked out at 2.1 fold.

As to `CCOc1cc(C(C)C)ccc1C` [Compound 3, ethyl carvacrol], the “fold increase in activity relative to carvacrol” value under setting [1] is recorded as 1.6 fold.

These data come from publication PMC7059125 (Bioorganic & medicinal chemistry letters, 2018).
